Test results as given in patent US10464927B2, “2,4-disubstituted pyrimidines as CDK inhibitors” (Shanghai Xunhe Pharmaceutical Technology Co. Ltd., priority 2016, dated 2019).

Experiments:
[1] = molecular target: CDK4 (Homo sapiens (Human), UniProt P11802); test: CDK4 protein kinase activity, Caliper mobility shift assay; type: biochemical; settings: GST-CDK4(1-303 end), substrate Peptide FAM-P8, 28° C. for 3 h
Method: (§1) activity assay: The CDK4 protein kinase activity was measured using the Caliper mobility shift assay (see J. Biomol. Screen, 2009, PP31). The test compound was dissolved in DMSO and diluted with a kinase buffer solution (20 mM HEPES-pH 7.5, 0.01% Triton X-100, 10 mM MgCl2, 2 mM DTT) and 5 μL of compound at 5-fold final concentration of reaction dissolved in 10% DMSO was added in a 384-well plate. The compound-free control well was 5 μL of 10% DMSO, and the no-activity control well was 5 μL of kinase buffer. 10 μL of a 2.5-fold diluted CDK4 enzyme solution (GST-CDK4(1-303 end)) was added and incubated at room temperature for 10 min, and then 10 μL of the 2.5-fold diluted substrate solution Peptide FAM-P8 was added. The reaction was stopped by adding 25 μL of stop solution after incubation at 28° C. for 3 h, and the conversion rate data was read on a Caliper EZ Reader II (Caliper Life Sciences) and the conversion rate was converted to inhibition rate data according to above method. Among them, the inhibition rate %=(max−conversion)/(max−min)×100%.

[2] = molecular target: CDK6 (Homo sapiens (Human), UniProt Q00534); test: CDK6 protein kinase activity, Caliper mobility shift assay; type: biochemical; settings: GST-CDK6(1-326 end), substrate Peptide FAM-P8, 28° C. for 3 h
Sequence of CDK6 (Q00534 whole entry): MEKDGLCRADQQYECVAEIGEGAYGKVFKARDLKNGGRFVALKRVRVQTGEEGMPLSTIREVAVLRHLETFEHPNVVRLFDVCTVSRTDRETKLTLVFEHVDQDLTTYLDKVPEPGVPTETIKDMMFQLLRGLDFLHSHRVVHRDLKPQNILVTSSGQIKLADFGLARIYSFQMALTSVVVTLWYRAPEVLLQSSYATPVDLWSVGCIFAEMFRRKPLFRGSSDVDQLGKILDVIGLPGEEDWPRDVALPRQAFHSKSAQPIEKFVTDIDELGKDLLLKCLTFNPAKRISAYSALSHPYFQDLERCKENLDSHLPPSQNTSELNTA
Sequence of CDK6 (P30281 whole entry partner): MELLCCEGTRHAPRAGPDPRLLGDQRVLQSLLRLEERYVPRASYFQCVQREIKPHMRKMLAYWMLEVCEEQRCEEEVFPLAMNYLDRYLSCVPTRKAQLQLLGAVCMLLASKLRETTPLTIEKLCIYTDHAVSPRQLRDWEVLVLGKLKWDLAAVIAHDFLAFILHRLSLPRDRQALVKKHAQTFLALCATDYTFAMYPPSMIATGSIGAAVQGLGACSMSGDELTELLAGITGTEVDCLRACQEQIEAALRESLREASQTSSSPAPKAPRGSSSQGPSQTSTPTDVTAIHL
Method: as §1, with “Activity Assay:” for “activity assay:”, “CDK6” for “CDK4”, “(GST-CDK6(1-326” for “(GST-CDK4(1-303”

Sequence of CDK4 (P11802 whole entry): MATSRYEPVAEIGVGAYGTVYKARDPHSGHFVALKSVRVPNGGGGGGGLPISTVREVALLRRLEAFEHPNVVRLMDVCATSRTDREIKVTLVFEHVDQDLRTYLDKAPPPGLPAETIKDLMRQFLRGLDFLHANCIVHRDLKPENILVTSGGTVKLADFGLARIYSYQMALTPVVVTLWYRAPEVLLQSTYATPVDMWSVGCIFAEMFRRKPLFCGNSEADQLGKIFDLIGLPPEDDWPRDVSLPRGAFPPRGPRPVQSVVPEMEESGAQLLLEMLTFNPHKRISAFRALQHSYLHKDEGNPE
Sequence of CDK4 (P30281 whole entry partner): as the sequence (P30281 whole entry partner) above

## CCN1CCN(Cc2ccc(Nc3ncc(F)c(-c4ccc5nnc(C(C)C)n5c4)n3)nc2)CC1 [Compound I-6, N-(5-(4-ethylpiperazine-1-methyl)-pyridin-2-yl)-5-fluoro-4-(3-isopropyl-[1,2,4]triazolo[4,3-a]pyridin-6-yl)pyrimidin-2-amine]
[1]
  IC50: ≤ 20 nM
[2]
  IC50: 20 to 100 nM

## CC(=O)c1c2ccc(-c3nc(Nc4ccc(N5CCNCC5)cn4)ncc3F)nc2nn1C1CC1 [Compound I-29, N-(5-(piperazin-1-yl)-pyridin-2-yl)-5-fluoro-4-(2-cyclopropyl-3-acetyl-2H-7-azaindazol-6-yl)pyrimidin-2-amine]
[1]
  IC50: ≤ 20 nM
[2]
  IC50: ≤ 20 nM

## CC(=O)c1cn(C2CCCCCC2)c2ccc(-c3nc(Nc4ccc(CN5CCN(C6CCCC6)CC5)cn4)ncc3F)cc12 [Compound I-20, N-(5-(4-cyclopentylpiperazin-1-methyl)-pyridin-2-yl)-5-fluoro-4-(1-cycloheptyl-3-acetyl-1H-indol-5-yl)pyrimidin-2-amine]
[1]
  IC50: ≤ 20 nM
[2]
  IC50: ≤ 20 nM

## CCN1CCN(Cc2ccc(Nc3ncc(F)c(-c4ncnc5c4c(C#N)cn5C)n3)nc2)CC1 [Compound I-42, N-(5-(4-ethylpiperazine-1-methyl)-pyridin-2-yl)-5-fluoro-4-(5-cyano-7-methyl-7H-pyrrolo[2,3-d]pyrimidin-4-yl)pyrimidin-2-amine]
[1]
  IC50: ≤ 20 nM
[2]
  IC50: 20 to 100 nM

## CCN1CCN(Cc2ccc(Nc3ncc(F)c(-c4ccc5c(c4)cc(C(C)=O)n5C(C)C)n3)nc2)CC1 [Compound I-24, N-(5-(4-ethylpiperazine-1-methyl)-pyridin-2-yl)-5-fluoro-4-(1-isopropyl-2-acetyl-1H-indol-5-yl)pyrimidin-2-amine]
[1]
  IC50: ≤ 20 nM
[2]
  IC50: ≤ 20 nM

## CC(C)n1c(C(=O)N(C)C)cc2nc(-c3nc(Nc4ccc(N5CCNCC5)cn4)ncc3F)ccc21 [Compound I-25, N-(5-(piperazin-1-yl)-pyridin-2-yl)-5-fluoro-4-(1-isopropyl-2-formic acid diformamido-1H-4-azaindol-5-yl)pyrimidin-2-amine]
[1]
  IC50: ≤ 20 nM
[2]
  IC50: ≤ 20 nM

## Cc1nc2cnc(-c3nc(Nc4ccc(N5CCNCC5)cn4)ncc3F)nc2n1C(C)C [Compound I-8, N-(5-(piperazin-1-yl)-pyridin-2-yl)-5-fluoro-4-(9-isopropyl-8-methyl-9H-purin-2-yl)pyrimidin-2-amine]
[1]
  IC50: ≤ 20 nM
[2]
  IC50: 20 to 100 nM

## CCN1CCN(Cc2ccc(Nc3ncc(F)c(-c4ncc5nc(C)n(C(C)C)c5n4)n3)nc2)CC1 [Compound I-9, N-(5-(4-ethylpiperazine-1-methyl)-pyridin-2-yl)-5-fluoro-4-(9-isopropyl-8-methyl-9H-purin-2-yl)pyrimidin-2-amine]
[1]
  IC50: 20 to 100 nM
[2]
  IC50: 20 to 100 nM

## CC(C)c1c2ccc(-c3nc(Nc4ccc(N5CCNCC5)cn4)ncc3F)c(Cl)c2nn1C [Compound I-30, N-(5-(piperazin-1-yl)-pyridin-2-yl)-5-fluoro-4-(2-methyl-3-isopropyl-2H-7-chloro-indazol-6-yl)pyrimidin-2-amine]
[2]
  IC50: 20 to 100 nM

## CC(C)c1c(C#N)n(C2CC2)c2ccc(-c3nc(Nc4ccc(CN5CCN(C6CC6)CC5)cn4)ncc3F)cc12 [Compound I-17, N-(5-(4-cyclopropylpiperazine-1-methyl)-pyridin-2-yl)-5-fluoro-4-(1-cyclopropyl-2-cyano-3-isopropyl-1H-indol-5-yl)pyrimidin-2-amine]
[2]
  IC50: 20 to 100 nM

## CC(=O)c1nc2cnc(-c3nc(Nc4ccc(CN5CCN(C)CC5)cn4)ncc3F)nc2n1C(C)C [Compound I-38, N-(5-(4-methylpiperazine-1-methyl)-pyridin-2-yl)-5-fluoro-4-(9-isopropyl-8-acetyl-9H-purin-2-yl)pyrimidin-2-amine]
[1]
  IC50: ≤ 20 nM
[2]
  IC50: ≤ 20 nM

## CN(C)C(=O)c1c2ccc(-c3nc(Nc4ccc(N5CCNCC5)cn4)ncc3F)c(F)c2nn1C [Compound I-31, N-(5-(piperazin-1-yl)-pyridin-2-yl)-5-fluoro-4-(2-methyl-3-formic acid diformamido-2H-7-fluoro-indazol-6-yl)pyrimidin-2-amine]
[1]
  IC50: ≤ 20 nM
[2]
  IC50: ≤ 20 nM

## CCN1CCN(Cc2ccc(Nc3ncc(F)c(-c4ccc5c(c4)c(C(C)=O)nn5C(C)C)n3)nc2)CC1 [Compound I-44, N-(5-(4-ethylpiperazine-1-methyl)-pyridin-2-yl)-5-fluoro-4-(1-isopropyl-3-acetyl-1H-indazol-5-yl)pyrimidin-2-amine]
[1]
  IC50: ≤ 20 nM
[2]
  IC50: > 500 nM

## CCN1CCN(Cc2ccc(Nc3ncc(F)c(-c4ncc5nc(C(=O)N(C)C)n(C)c5n4)n3)nc2)CC1 [Compound I-40, N-(5-(4-ethylpiperazin-1-methyl)-pyridin-2-yl)-5-fluoro-4-(9-methyl-8-formic acid diformamido-9H-purin-2-yl)pyrimidin-2-amine]
[1]
  IC50: ≤ 20 nM
[2]
  IC50: ≤ 20 nM

## CCC(CC)n1c(C(C)=O)cc2cc(-c3nc(Nc4ccc(CN5CCN(C)CC5)cn4)ncc3Cl)ccc21 [Compound I-15, N-(5-(4-methylpiperazine-1-methyl)-pyridin-2-yl)-5-chloro-4-(1-(3-pentyl)-2-acetyl-1H-indol-5-yl)pyrimidin-2-amine]
[1]
  IC50: 100 to 500 nM
[2]
  IC50: 20 to 100 nM

## CC(C)c1nnc2ccc(-c3nc(Nc4ccc(N5CCNCC5)cn4)ncc3F)cn12 [Compound I-7, N-(5-(piperazin-1-yl)-pyridin-2-yl)-5-fluoro-4-(3-isopropyl-[1,2,4]triazolo[4,3-a]pyridine-6-yl)pyrimidin-2-amine]
[1]
  IC50: ≤ 20 nM
[2]
  IC50: ≤ 20 nM

## CC(C)n1ccc2cc(-c3nc(Nc4ccc(N5CCNCC5)cn4)ncc3F)ccc21 [Compound I-2, N-(5-(piperazin-1-yl)-pyridin-2-yl)-5-fluoro-4-(1-isopropyl-1H-indol-5-yl)pyrimidine 2-amine]
[1]
  IC50: ≤ 20 nM
[2]
  IC50: ≤ 20 nM

## CCN1CCN(c2ccc(Nc3ncc(F)c(-c4ncc5nc(C)n(C(C)C)c5n4)n3)nc2)CC1 [Compound I-48, N-(5-(4-ethylpiperazin-1-yl)-pyridin-2-yl)-5-fluoro-4-(9-isopropyl-8-methyl-9H-purin-2-yl)pyrimidin-2-amine]
[1]
  IC50: ≤ 20 nM
[2]
  IC50: 100 to 500 nM

## Cc1nc2cnc(-c3nc(Nc4ccc(N5CCN(C)CC5)cn4)ncc3F)nc2n1C(C)C [Compound I-47, N-(5-(4-methylpiperazin-1-yl)-pyridin-2-yl)-5-fluoro-4-(9-isopropyl-8-methyl-9H-purin-2-yl)pyrimidin-2-amine]
[1]
  IC50: ≤ 20 nM
[2]
  IC50: 20 to 100 nM

## CCN1CCN(Cc2ccc(Nc3ncc(F)c(-c4ccc5nnc(C6CC6)n5c4)n3)nc2)CC1 [Compound I-36, N-(5-(4-ethylpiperazin-1-methyl)-pyridin-2-yl)-5-fluoro-4-(3-cyclopropyl-[1,2,4]triazolo[4,3-a]pyridin-6-yl)pyrimidin-2-amine]
[1]
  IC50: ≤ 20 nM
[2]
  IC50: ≤ 20 nM

## Cc1c(C(F)(F)F)c2cc(-c3ccnc(Nc4ccc(CN5CCN(C(C)C)CC5)cn4)n3)ccc2n1C [Compound I-16, N-(5-(4-isopropylpiperazin-1-methyl)-pyridin-2-yl)-4-(1,2-dimethyl-3-trifluoromethyl-1H-indol-5-yl)pyrimidin-2-amine]
[1]
  IC50: ≤ 20 nM
[2]
  IC50: ≤ 20 nM

## CC(=O)c1cc2cc(-c3nc(Nc4ccc(N5CCNCC5)cn4)ncc3F)ccc2n1C(C)C [Compound I-23, N-(5-(piperazin-1-yl)-pyridin-2-yl)-5-fluoro-4-(1-isopropyl-2-acetyl-1H-indol-5-yl)pyrimidin-2-amine]
[1]
  IC50: ≤ 20 nM
[2]
  IC50: ≤ 20 nM

## CCN1CCN(Cc2ccc(Nc3ncc(F)c(-c4ccc5c(cc(C(=O)N(C)C)n5C(C)C)c4F)n3)nc2)CC1 [Compound I-27, N-(5-(4-ethylpiperazine-1-methyl)-pyridin-2-yl)-5-fluoro-4-(1-isopropyl-2-formic acid diformamido-1H-4-fluoroindol-5-yl)pyrimidin-2-amine]
[1]
  IC50: ≤ 20 nM
[2]
  IC50: ≤ 20 nM

## CN1CCN(c2ccc(Nc3ncc(F)c(-c4ncc5nc(C(=O)N(C)C)n(C6CCCC6)c5n4)n3)nc2)CC1 [Compound I-37]
[1]
  IC50: ≤ 20 nM
[2]
  IC50: 20 to 100 nM

## Fc1cnc(Nc2ccc(CN3CCN(C4CCCCC4)CC3)cn2)nc1-c1ccc2c(c1)c(C1CCC1)cn2C1CCCCC1 [Compound I-19, N-(5-(4-cyclohexylpiperazin-1-methyl)-pyridin-2-yl)-5-fluoro-4-(1-cyclohexyl-3-cyclobutyl-1H-indol-5-yl)pyrimidin-2-amine]
[1]
  IC50: ≤ 20 nM
[2]
  IC50: > 500 nM
